In patent US12258344B2, “Azaaromatic amide derivatives for the treatment of cancer” (SHENZHEN FORWARD PHARMACEUTICALS CO., LTD., priority 2019, dated 2025):

Legend:
Assay type in all cases: cell-based
[1] = tested on: NCI-H1975 (EGFR L858R/T790M double mutant); assay: Test 1: EGFR L858R/T790M (EGFR double mutant) cell proliferation test; settings: Homo sapiens; NCI-H1975 cells, 72 hours, Cell Titer-Glo
Protocol: Test 1: EGFR L858R/T790M (EGFR Double Mutant) Cell Proliferation Test
The human lung cell line NCI-H1975 (EGFR L858R/T790M double mutant) was obtained from the American Type Culture Collection. NCI-H1975 cells were cultured in RPMI1640 medium containing 10% fetal bovine serum and 2 mM glutamine. The cells were grown at 37° C. in a humidified incubator with 5% CO2.
(§1) The number of viable cells in the culture was measured according to the protocol described in Promega's Cell Titer-Glo Luminescent cell Viability Assay (Promega catalog number #G7570). 90 μl of cells (8,000 cells/well) were cultured in growth medium in a Corning black transparent bottom 96-well plate, and cultured in a 5% CO2 humidified incubator at 37° C. overnight. The compound serially diluted in 100% DMSO was added to the cells using a pipette, and the cells were incubated for another 72 hours. 100 μl of the mixed Cell Titer-Glo reagent was added to the cells in the 96-well culture plate to lyse the cells and mix gently. Subsequently, the […] was detected on the Envision microplate detector to obtain the data of each compound. Finally, the data was input into a suitable software package (such as Prism) for curve fitting analysis.

[2] = biological target: BaF3 (EGFR-D770insSVD) (Homo sapiens, UniProt P00533, DUP768-770, cells depend on it); assay: Test 2: BaF3 (EGFR-D770insSVD) cell proliferation test; settings: 72 hours, Cell Titer-Glo, read-out: Test 2 - IC50
Protocol: Test 2: BaF3 (EGFR-D770insSVD) Cell Proliferation Test
BaF3 (EGFR-D770insSVD) was cultured in RPMI1640 medium containing 10% fetal bovine serum and 2 mM glutamine. The cells were grown at 37° C. in a humidified incubator with 5% CO2.
as §1, with “(3,000” for “(8,000”

[3] = biological target: BaF3 (EGFR-A763insFQEA) (Homo sapiens, UniProt P00533, INS763FQEA, cells depend on it); assay: Test 3: BaF3 (EGFR-A763insFQEA) cell proliferation test; settings: 72 hours, Cell Titer-Glo, read-out: Test 3 - IC50
Protocol: Test 3: BaF3 (EGFR-A763insFOEA) Cell Proliferation Test
BaF3 (EGFR-A763insFQEA) was cultured in RPMI1640 medium containing 10% fetal bovine serum and 2 mM glutamine. The cells were grown at 37° C. in a humidified incubator with 5% CO2.
as §1, with “(3,000” for “(8,000”

[4] = biological target: BaF3 (EGFR-V769insASV) (Homo sapiens, UniProt P00533, DUP767-769, cells depend on it); assay: Test 4: BaF3 (EGFR-V769insASV) cell proliferation test; settings: 72 hours, Cell Titer-Glo, read-out: Test 4 - IC50
Protocol: Test 4: BaF3 (EGFR-V769insASV) Cell Proliferation Test
BaF3 (EGFR-V769insASV) was cultured in RPMI1640 medium containing 10% fetal bovine serum and 2 mM glutamine. The cells were grown at 37° C. in a humidified incubator with 5% CO2.
as §1, with “(3,000” for “(8,000”

[5] = biological target: BaF3 (EGFR-N771insH) (Homo sapiens, UniProt P00533, INS771H, cells depend on it); assay: Test 5: BaF3 (EGFR-N771insH) cell proliferation test; settings: 72 hours, Cell Titer-Glo, read-out: Test 5 - IC50
Protocol: Test 5: BaF3 (EGFR-N771insH) Cell Proliferation Test
BaF3 (EGFR-N771insH) was cultured in RPMI1640 medium containing 10% fetal bovine serum and 2 mM glutamine. The cells were grown at 37° C. in a humidified incubator with 5% CO2.
as §1, with “(3,000” for “(8,000”

[6] = biological target: BaF3 (EGFR-D770insNPG) (Homo sapiens, UniProt P00533, INS772GNP, cells depend on it); assay: Test 6: BaF3 (EGFR-D770insNPG) cell proliferation test; settings: 72 hours, Cell Titer-Glo, read-out: Test 6 - IC50
Protocol: Test 6: BaF3 (EGFR-D770insNPG) Cell Proliferation Test
BaF3 (EGFR-D770insNPG) was cultured in RPMI1640 medium containing 10% fetal bovine serum and 2 mM glutamine. The cells were grown at 37° C. in a humidified incubator with 5% CO2.
as §1, with “(3,000” for “(8,000”

[7] = biological target: BaF3 (EGFR-S768I) (Homo sapiens, UniProt P00533, S768I, cells depend on it); assay: Test 7: BaF3 (EGFR-S768I) cell proliferation test; settings: 72 hours, Cell Titer-Glo, read-out: Test 7 - IC50
Protocol: Test 7: BaF3 (EGFR-S768I) Cell Proliferation Test
BaF3 (EGFR-S768I) was cultured in RPMI1640 medium containing 10% fetal bovine serum and 2 mM glutamine. The cells were grown at 37° C. in a humidified incubator with 5% CO2.
as §1, with “(3,000” for “(8,000”

[8] = biological target: BaF3 (EGFR-L861Q) (Homo sapiens, UniProt P00533, L861Q, cells depend on it); assay: Test 8: BaF3 (EGFR-L861Q) cell proliferation test; settings: 72 hours, Cell Titer-Glo, read-out: Test 8 - IC50
Protocol: Test 8: BaF3 (EGFR-L8610) Cell Proliferation Test
BaF3 (EGFR-L861Q) was cultured in RPMI1640 medium containing 10% fetal bovine serum and 2 mM glutamine. The cells were grown at 37° C. in a humidified incubator with 5% CO2.
as §1, with “(3,000” for “(8,000”

[9] = biological target: BaF3 (HER2-A775insYVMA) (Homo sapiens, UniProt P04626, DUP772-775, cells depend on it); assay: Test 9: BaF3 (HER2-A775insYVMA) cell proliferation test; settings: 72 hours, Cell Titer-Glo, read-out: Test 9 - IC50
Protocol: Test 9: BaF3 (HER2-A775insYVMA) Cell Proliferation Test
BaF3 (HER2-A775insYVMA) was cultured in RPMI1640 medium containing 10% fetal bovine serum and 2 mM glutamine. The cells were grown at 37° C. in a humidified incubator with 5% CO2.
as §1, with “(3,000” for “(8,000”

[10] = biological target: BaF3 (HER2-P780insGSP) (Homo sapiens, UniProt P04626, DUP778-780, cells depend on it); assay: Test 10: BaF3 (HER2-P780insGSP) cell proliferation test; settings: 72 hours, Cell Titer-Glo, read-out: Test 10 - IC50
Protocol: Test 10: BaF3 (HER2-P780insGSP) Cell Proliferation Test
BaF3 (HER2-P780insGSP) was cultured in RPMI1640 medium containing 10% fetal bovine serum and 2 mM glutamine. The cells were grown at 37° C. in a humidified incubator with 5% CO2.
as §1, with “(3,000” for “(8,000”

[11] = biological target: BaF3 (HER2-G776insVC) (Homo sapiens, UniProt P04626, cells depend on it, form not given); assay: Test 11: BaF3 (HER2-G776insVC) cell proliferation test; settings: 72 hours, Cell Titer-Glo, read-out: Test 11 - IC50
Protocol: Test 11: BaF3 (HER2-G776insVC) Cell Proliferation Test
The engineered cell line BaF3 (HER2-G776insVC) was constructed by the inventor himself (for the method of cell line construction, see Jingrui Jiang et al., Cancer Res. 2005 Oct. 1; 65 (19): 8964-74; Jacqulyne P. Robichaux et al., Nat Med. 2018 May; 24 (5): 638-646). BaF3 (HER2-G776insVC) was cultured in RPMI1640 medium containing 10% fetal bovine serum and 2 mM glutamine. The cells were grown at 37° C. in a humidified incubator with 5% CO2.
as §1, with “(3,000” for “(8,000”

[12] = biological target: T1, BaF3 (EGFR/D770insSVD) (Homo sapiens, UniProt P00533, cells depend on it, form not given); assay: Test 13: EGFR exon 20 inserted D770insSVD cell proliferation test; settings: A763insFQEA, V769insASV, D770insSVD (tests 13-15), in words
T1 construct: other: A763insFQEA, V769ins
Protocol: Test 13: EGFR Exon 20 Inserted D770insSVD Cell Proliferation Test
as §1, with “(3,000” for “(8,000”

[13] = biological target: T2, BaF3 (EGFR/S768I) (Homo sapiens, UniProt P00533, cells depend on it, form not given); assay: Test 19: EGFR/S768I mutant cell line proliferation test; settings: EGFR S768I and EGFR L861Q (tests 19-20), in words
T2 construct: other: EGFR S768I and EGFR L8
Protocol: Test 19: EGFR/S768I Mutant Cell Line Proliferation Test
as §1, with “(3,000” for “(8,000”

Chain of BaF3 (HER2-P780insGSP) (P04626 with tags, fused parts or gaps DUP778-780): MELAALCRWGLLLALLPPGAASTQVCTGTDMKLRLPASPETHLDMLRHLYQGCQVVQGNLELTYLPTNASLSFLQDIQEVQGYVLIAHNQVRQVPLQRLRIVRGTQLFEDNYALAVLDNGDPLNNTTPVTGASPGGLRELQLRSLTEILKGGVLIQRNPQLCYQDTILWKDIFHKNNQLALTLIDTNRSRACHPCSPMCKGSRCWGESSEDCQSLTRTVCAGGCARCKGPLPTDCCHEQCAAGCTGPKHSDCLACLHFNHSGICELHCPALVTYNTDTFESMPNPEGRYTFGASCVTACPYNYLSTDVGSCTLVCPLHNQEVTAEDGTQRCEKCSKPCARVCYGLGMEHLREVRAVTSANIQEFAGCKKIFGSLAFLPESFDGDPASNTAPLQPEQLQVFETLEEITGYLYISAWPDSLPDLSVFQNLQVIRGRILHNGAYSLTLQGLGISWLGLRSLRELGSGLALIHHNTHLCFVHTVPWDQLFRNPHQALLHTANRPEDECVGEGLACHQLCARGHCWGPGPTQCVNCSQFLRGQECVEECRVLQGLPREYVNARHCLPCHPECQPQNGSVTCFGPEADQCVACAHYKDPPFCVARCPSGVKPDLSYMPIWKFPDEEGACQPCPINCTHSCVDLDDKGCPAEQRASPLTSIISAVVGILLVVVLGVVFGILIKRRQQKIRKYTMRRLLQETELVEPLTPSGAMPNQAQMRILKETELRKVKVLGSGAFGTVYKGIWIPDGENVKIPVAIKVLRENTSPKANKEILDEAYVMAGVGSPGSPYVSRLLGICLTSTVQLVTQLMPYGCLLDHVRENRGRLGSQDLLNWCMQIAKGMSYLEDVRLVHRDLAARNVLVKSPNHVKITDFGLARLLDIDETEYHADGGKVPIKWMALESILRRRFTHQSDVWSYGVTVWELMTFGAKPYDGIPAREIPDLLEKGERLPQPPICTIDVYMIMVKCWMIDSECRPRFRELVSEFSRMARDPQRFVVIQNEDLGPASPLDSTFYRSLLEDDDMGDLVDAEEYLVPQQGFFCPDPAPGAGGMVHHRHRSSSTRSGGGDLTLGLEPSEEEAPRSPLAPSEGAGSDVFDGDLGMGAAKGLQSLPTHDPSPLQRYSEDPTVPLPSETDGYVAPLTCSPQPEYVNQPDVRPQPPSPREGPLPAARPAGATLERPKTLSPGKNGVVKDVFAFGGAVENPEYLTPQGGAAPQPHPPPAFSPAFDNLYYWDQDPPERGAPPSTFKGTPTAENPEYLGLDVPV
Chain of BaF3 (HER2-G776insVC) (P04626 with tags, fused parts or gaps DELINS776-776VC): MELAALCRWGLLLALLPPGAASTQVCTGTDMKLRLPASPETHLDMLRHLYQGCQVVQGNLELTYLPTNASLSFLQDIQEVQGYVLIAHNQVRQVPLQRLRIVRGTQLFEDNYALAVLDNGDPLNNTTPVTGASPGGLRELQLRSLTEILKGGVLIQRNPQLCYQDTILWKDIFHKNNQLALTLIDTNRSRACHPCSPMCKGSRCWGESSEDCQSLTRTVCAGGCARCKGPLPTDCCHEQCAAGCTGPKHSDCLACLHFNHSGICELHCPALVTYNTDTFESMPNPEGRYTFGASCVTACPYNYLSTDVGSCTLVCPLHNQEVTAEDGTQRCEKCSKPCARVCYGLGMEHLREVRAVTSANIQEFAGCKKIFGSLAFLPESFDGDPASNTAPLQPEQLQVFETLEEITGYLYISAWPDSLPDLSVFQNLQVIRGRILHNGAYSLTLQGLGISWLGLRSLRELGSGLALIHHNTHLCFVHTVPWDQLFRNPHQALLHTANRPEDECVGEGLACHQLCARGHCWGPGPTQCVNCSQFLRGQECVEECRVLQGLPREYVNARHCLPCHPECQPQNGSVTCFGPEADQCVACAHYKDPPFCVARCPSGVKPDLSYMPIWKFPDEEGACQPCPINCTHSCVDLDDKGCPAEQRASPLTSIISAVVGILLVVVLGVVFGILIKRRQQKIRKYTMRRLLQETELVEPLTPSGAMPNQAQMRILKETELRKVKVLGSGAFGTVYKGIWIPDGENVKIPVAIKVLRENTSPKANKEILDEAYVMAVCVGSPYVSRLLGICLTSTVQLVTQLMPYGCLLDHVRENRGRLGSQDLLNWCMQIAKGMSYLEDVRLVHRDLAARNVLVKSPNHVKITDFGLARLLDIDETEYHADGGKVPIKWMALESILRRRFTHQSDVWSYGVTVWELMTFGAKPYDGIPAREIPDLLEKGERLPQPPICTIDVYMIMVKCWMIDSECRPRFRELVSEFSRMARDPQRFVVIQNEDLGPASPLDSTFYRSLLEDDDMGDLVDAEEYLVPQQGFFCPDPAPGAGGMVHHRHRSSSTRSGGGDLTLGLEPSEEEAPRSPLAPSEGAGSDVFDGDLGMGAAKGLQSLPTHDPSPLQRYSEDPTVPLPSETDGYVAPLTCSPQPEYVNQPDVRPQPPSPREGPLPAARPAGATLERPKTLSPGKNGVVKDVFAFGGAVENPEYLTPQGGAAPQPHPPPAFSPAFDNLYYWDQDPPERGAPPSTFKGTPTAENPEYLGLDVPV
Chain of BaF3 (HER2-A775insYVMA) (P04626 with tags, fused parts or gaps DUP772-775): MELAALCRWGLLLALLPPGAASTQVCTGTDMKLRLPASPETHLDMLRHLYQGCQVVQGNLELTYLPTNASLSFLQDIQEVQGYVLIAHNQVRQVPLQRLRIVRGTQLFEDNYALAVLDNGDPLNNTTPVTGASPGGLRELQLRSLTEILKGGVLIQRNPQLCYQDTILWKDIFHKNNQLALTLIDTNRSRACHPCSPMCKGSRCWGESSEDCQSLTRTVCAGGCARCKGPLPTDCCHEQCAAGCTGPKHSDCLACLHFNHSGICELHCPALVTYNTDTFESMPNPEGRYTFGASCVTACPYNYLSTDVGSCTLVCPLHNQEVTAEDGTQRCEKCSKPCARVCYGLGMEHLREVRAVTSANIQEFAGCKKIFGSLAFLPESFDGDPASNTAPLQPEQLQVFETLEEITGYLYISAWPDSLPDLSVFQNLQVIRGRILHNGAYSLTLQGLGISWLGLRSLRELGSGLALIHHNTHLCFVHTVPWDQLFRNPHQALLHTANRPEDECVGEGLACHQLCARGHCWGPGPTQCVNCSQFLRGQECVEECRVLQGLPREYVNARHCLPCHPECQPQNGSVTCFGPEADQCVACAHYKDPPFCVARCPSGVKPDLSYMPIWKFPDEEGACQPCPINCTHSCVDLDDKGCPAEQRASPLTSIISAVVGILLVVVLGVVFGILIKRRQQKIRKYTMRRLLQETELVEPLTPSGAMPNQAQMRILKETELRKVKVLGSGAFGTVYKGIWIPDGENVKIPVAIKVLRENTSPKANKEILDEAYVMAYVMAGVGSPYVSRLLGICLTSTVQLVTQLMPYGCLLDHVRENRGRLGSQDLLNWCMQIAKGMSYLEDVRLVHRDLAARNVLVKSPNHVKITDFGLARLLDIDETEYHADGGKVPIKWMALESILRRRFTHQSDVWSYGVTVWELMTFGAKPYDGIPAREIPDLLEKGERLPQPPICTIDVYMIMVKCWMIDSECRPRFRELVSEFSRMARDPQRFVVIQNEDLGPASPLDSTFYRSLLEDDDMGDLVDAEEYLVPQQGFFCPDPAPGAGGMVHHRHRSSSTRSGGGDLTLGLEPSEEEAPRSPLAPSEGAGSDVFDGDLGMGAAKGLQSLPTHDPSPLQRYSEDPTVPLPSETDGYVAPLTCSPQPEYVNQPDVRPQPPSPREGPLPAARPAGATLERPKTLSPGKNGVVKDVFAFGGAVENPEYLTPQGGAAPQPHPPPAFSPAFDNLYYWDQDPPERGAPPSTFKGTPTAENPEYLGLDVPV

Row | Structure (SMILES) | IC50 [1] [nM] | GI50 [2] [nM] | GI50 [3] [nM] | GI50 [4] [nM] | GI50 [5] [nM] | GI50 [6] [nM] | GI50 [7] [nM] | GI50 [8] [nM] | GI50 [9] [nM] | GI50 [10] [nM] | GI50 [11] [nM] | cell activity compared with Osimertinib (AZD9291) against EGFR exon 20 insertion mutations [12] | activity compared with Osimertinib (AZD9291) against EGFR S768I and EGFR L861Q mutations [13]
1 | C=CC(=O)Nc1cc(Nc2ncnc(-c3cn(C)c4cc(Cl)c(OC)cc34)n2)c(OC)cc1N(C)CCN(C)C [Example 10] | 183 | 566 | 183 | 466 | 146 | 181 | 44.5 | 36.1 | 45.2 | 32.6 | 9.56 | significant superior cell activity over Osimertinib (AZD9291) | 
2 | C=CC(=O)Nc1cc(Nc2ncnc(Oc3ccc(Cl)c(OC)c3)n2)c(OC)cc1N(C)CCN(C)C [Example 12] | 66.3 | 183 | 57.3 | 121 | 82.5 | 75.3 | 29.4 | 17.2 | 98.2 | 47.8 | 11.4 |  | 
3 | C=CC(=O)Nc1cc(Nc2nccc(-c3cn(C)c4ccccc34)n2)c(OCC(F)(F)F)nc1N(C)CCN(C)C.CS(=O)(=O)O [Compound 31] |  |  |  |  |  |  |  |  |  |  |  |  | superior activity over Osimertinib (AZD9291)
4 | C=CC(=O)Nc1cc(Nc2nccc(-c3cn(C)c4ccccc34)n2)c(OCC(F)(F)F)nc1N(C)CCN(C)C.Cl [Compound 32] |  |  |  |  |  |  |  |  |  |  |  |  | superior activity over Osimertinib (AZD9291)

Further compounds by falling IC50 [1], results first:

Row | IC50 [1] [nM] | GI50 [2] [nM] | GI50 [3] [nM] | GI50 [4] [nM] | GI50 [5] [nM] | GI50 [6] [nM] | GI50 [7] [nM] | GI50 [8] [nM] | GI50 [9] [nM] | GI50 [10] [nM] | GI50 [11] [nM] | Structure (SMILES) | cell activity compared with Osimertinib (AZD9291) against EGFR exon 20 insertion mutations [12] | activity compared with Osimertinib (AZD9291) against EGFR S768I and EGFR L861Q mutations [13]
5 | 42.1 | 88.7 | 43.1 | 88.6 | 35.6 | 40.9 | 13.6 | 10.8 | 85.2 | 29.6 | 8.36 | C=CC(=O)Nc1cc(Nc2ncnc(Oc3ccc(Cl)c(OC)c3)n2)c(OC(F)F)cc1N(C)CCN(C)C [Example 13] |  | 
6 | 39.6 | 30 | 16.6 | 57.6 | 18.2 | 22.8 | 7.82 | 5.82 | 21.8 | 11.6 | 2.73 | C=CC(=O)Nc1cc(Nc2ncnc(-c3cn(C)c4ccc(OC)cc34)n2)c(OC)cc1N(C)CCN(C)C [Example 8, N-(2-((2-(dimethylamino)ethyl)(methyl)amino)-4-methoxy-5-((4-(5-methoxy-1-methyl-1H-indol-3-yl)-1,3,5-triazin-2-yl)amino)phenyl)acrylamide] |  | 
7 | 15.3 | 48.7 | 14.3 | 45.5 | 15.3 | 12.8 | 9.17 | 5.01 | 13.9 | 7.59 | 1.8 | C=CC(=O)Nc1cc(Nc2ncnc(-c3cn(C)c4ccc(Cl)cc34)n2)c(OC)cc1N(C)CCN(C)C [Example 9] |  | 
